According to ChEMBL document CHEMBL1132119, “1-Arylnaphthalene lignan: a novel scaffold for type 5 phosphodiesterase inhibitor” (J Med Chem, 1999):

Assays:
[1] = biological target: Phosphodiesterase 1 (Canis familiaris); experiment: Inhibitory activity against phosphodiesterase 1 (PDE I), isolated from cardiac ventricle
[2] = biological target: Phosphodiesterase 3 (Canis familiaris); experiment: Inhibitory activity against phosphodiesterase 3 (PDE 3) isolated from cardiac ventricle
[3] = biological target: cGMP-specific 3',5'-cyclic phosphodiesterase (Canis lupus familiaris, UniProt O77746); experiment: Inhibitory activity against phosphodiesterase 5 (PDE V), isolated from lung
[4] = biological target: Phosphodiesterase 4 (Canis familiaris); experiment: Inhibition of canine lung Phosphodiesterase 4
[5] = biological target: Phosphodiesterase 2 (Canis familiaris); experiment: Inhibition of canine adrenal gland Phosphodiesterase 2
Rattus norvegicus = species: Rattus norvegicus; experiment: Relaxant effect on rat aortic rings.; type: functional, organism-based; conditions: Aorta

Row | Structure (SMILES) | IC50 [1] [µM] | IC50 [2] [µM] | IC50 [3] [µM] | IC50 [4] [µM] | IC50 [5] [µM] | EC50 (Rattus norvegicus) [µM]
1 | COC(=O)c1c(C(=O)N2CCC(=O)CC2)cc2cc(OC)c(OC)cc2c1-c1cc(OC)c(OC)c(OC)c1 | 88 | > 100 | 0.5 |  |  | 
2 | COC(=O)c1c(C(=O)N2CCN(CCO)CC2)cc2ccc(C)cc2c1-c1cc(Br)c(OC)c(OC)c1 | 3.5 | > 100 | 0.051 |  |  | 
3 | COc1cc2cc3c(c(-c4cc(OC)c(OC)c(OC)c4)c2cc1OC)COC3=O | 0.43 | 0.84 | 0.068 |  |  | 
4 | COC(=O)c1c(C(=O)N2CCN(CCO)CC2)cc2cc(OC)c(OC)c(OC)c2c1-c1cc(Br)c(OC)c(OC)c1 | > 100 | > 100 | > 100 |  |  | 
5 | CCOC(=O)C1CCN(C(=O)c2cc3cc(OC)c(OC)cc3c(-c3cc(OC)c(OC)c(OC)c3)c2C(=O)OC)CC1 | 24 | 60 | 2 |  |  | 
6 | COC(=O)c1c(C(=O)N2CCN(CCO)CC2)cc2cc(OC)c(OC)cc2c1-c1cc(OC)c(OC)c(OC)c1 | 41 | > 100 | 0.094 | > 100 | > 100 | 2
7 | CCOc1cc2cc(C(=O)N3CCN(CCO)CC3)c(C(=O)OC)c(-c3cc(Br)c(OC)c(OC)c3)c2cc1OC |  |  | 0.017 |  |  | 0.3
8 | COC(=O)c1c(C(=O)N2CCN(C)CC2)cc2cc(OC)c(OC)cc2c1-c1cc(OC)c(OC)c(OC)c1 | 69 | > 100 | 1.4 |  |  | 
9 | COC(=O)c1c(C(=O)N2CCN(CCO)CC2)cc2ccccc2c1-c1cc(Br)c(OC)c(OC)c1 | 3.4 | > 100 | 0.025 | > 100 | > 100 | 0.79
10 | COC(=O)c1c(C(=O)N2CCC(O)CC2)cc2cc(OC)c(OC)cc2c1-c1cc(OC)c(OC)c(OC)c1 | 74 | > 100 | 0.17 |  |  | 
11 | COC(=O)c1c(C(=O)N2CCN(CCO)CC2)cc2c(Cl)cccc2c1-c1cc(Br)c(OC)c(OC)c1 |  |  | 0.0062 |  |  | 0.1
12 | COC(=O)c1c(C(=O)N2CCN(CCO)CC2)cc2cc(OC)c(OC)cc2c1-c1ccnc(Br)c1 |  |  | > 100 |  |  | 
13 | COC(=O)c1c(C(=O)N2CCN(CCO)CC2)cc2cc(OC)ccc2c1-c1cc(Br)c(OC)c(OC)c1 |  |  | 0.012 |  |  | 0.56
14 | COC(=O)c1c(C(N)=O)cc2cc(OC)c(OC)cc2c1-c1cc(OC)c(OC)c(OC)c1 | 0.82 | 0.32 | > 100 |  |  | 
15 | COC(=O)c1c(C(=O)N2CCN(CCO)CC2)cc2cc(OC)c(OC)cc2c1-c1ccc2c(c1)OCO2 | 55 | > 100 | 33 |  |  | 
16 | COC(=O)c1c(C(=O)N(C)C)cc2cc(OC)c(OC)cc2c1-c1cc(OC)c(OC)c(OC)c1 | 35 | 16 | 0.23 |  |  | 
17 | COc1cc2cc(N)c(CO)c(-c3cc(OC)c(OC)c(OC)c3)c2cc1OC | 2.1 | 3.5 | 13 |  |  | 
18 | O=C(O)C1CCN(c2nc(NCc3ccc4c(c3)OCO4)c3cc(Cl)ccc3n2)CC1 |  |  | 0.0016 |  |  | 0.2
19 | COC(=O)c1cc2cc(OC)c(OC)cc2c(-c2cc(OC)c(OC)c(OC)c2)c1C(=O)OC | > 100 | > 100 | 2.1 |  |  | 

Row | Structure (SMILES) | IC50 [1] [µM] | IC50 [2] [µM] | IC50 [3] [µM] | IC50 [4] [µM] | IC50 [5] [µM] | EC50 (Rattus norvegicus) [µM]
20 | COC(=O)c1c(CN2CCN(CCO)CC2)cc2cc(OC)c(OC)cc2c1-c1cc(OC)c(OC)c(OC)c1 | 26 | > 100 | 2.4 |  |  | 
21 | COC(=O)c1c(C(=O)N2CCOCC2)cc2cc(OC)c(OC)cc2c1-c1cc(OC)c(OC)c(OC)c1 |  |  | 0.39 |  |  | 
22 | COC(=O)c1c(C(=O)N2CCN(CCO)CC2)cc2cc(OC)c(OC)cc2c1-c1cc(N)c(OC)c(OC)c1 | > 100 | > 100 | 30 |  |  | 
23 | COC(=O)c1c(C(=O)N2CCN(CCO)CC2)cc2cc(OC)c(OC)cc2c1-c1cc(Cl)c(OC)c(OC)c1 | 26 | > 100 | 0.049 | > 100 | > 100 | 1.3
24 | COC(=O)c1c(C(=O)N2CCN(CCO)CC2)cc2ccc(Cl)cc2c1-c1cc(Br)c(OC)c(OC)c1 | 1.1 | > 100 | 0.021 |  |  | 
25 | CNC(=O)c1cc2cc(OC)c(OC)cc2c(-c2cc(OC)c(OC)c(OC)c2)c1C(=O)OC | > 100 | 2.9 | > 100 |  |  | 
26 | COc1cc2cc3c(c(-c4cc(OC)c(OC)c(OC)c4)c2cc1OC)C(=O)N(C)C3=O | > 100 | > 100 | > 100 |  |  | 
27 | COC(=O)c1c(C(=O)N2CCN(CCO)CC2)cc2cc(OC)c(OC)cc2c1/C=C/c1cc(OC)c(OC)c(OC)c1 |  |  | > 100 |  |  | 
28 | COC(=O)c1c(C(=O)N2CCN(CCO)CC2)cc2cc(OC)c(OC)cc2c1-c1cccs1 | 77 | > 100 | > 100 |  |  | 
29 | COc1cc2cc(C(=O)N3CCN(CCO)CC3)c(CO)c(-c3cc(OC)c(OC)c(OC)c3)c2cc1OC | > 100 | > 100 | > 100 |  |  | 
30 | COC(=O)c1c(C(=O)N2CCN(CCO)CC2)cc2cc(OC)c(OC)cc2c1-c1cc(OC)c(OC)cc1C |  |  | 52 |  |  | 
31 | COC(=O)c1c(C(=O)N2CCCC2)cc2cc(OC)c(OC)cc2c1-c1cc(OC)c(OC)c(OC)c1 |  |  | 0.78 |  |  | 
32 | COC(=O)c1c(C(=O)N2CCC(CO)CC2)cc2cc(OC)c(OC)cc2c1-c1cc(OC)c(OC)c(OC)c1 | 45 | > 100 | 0.32 |  |  | 
33 | COC(=O)c1c(C(=O)N2CCCCC2)cc2cc(OC)c(OC)cc2c1-c1cc(OC)c(OC)c(OC)c1 |  |  | 2.1 |  |  | 
34 | COC(=O)c1c(C(=O)N2CCN(CCO)CC2)cc2cc(OC)c(OC)cc2c1-c1cc(Br)c(OC)c(OC)c1 | 11 | > 100 | 0.024 | > 100 | > 100 | 0.46
35 | COc1cc2cc(CO)c(CO)c(-c3cc(OC)c(OC)c(OC)c3)c2cc1OC | 18 | 0.88 | 13 |  |  | 
36 | COC(=O)c1c(C(=O)N2CCN(CCO)CC2)cc2cc(OC)c(OC)cc2c1-c1cc(Cl)cc(Cl)c1 | > 100 | > 100 | 54 |  |  | 
37 | COC(=O)c1c(C(=O)N2CCN(CCO)CC2)cc2cc(OC)c(OC)cc2c1-c1cccc([N+](=O)[O-])c1 | > 100 | > 100 | > 100 |  |  | 
38 | COC(=O)c1c(C(=O)N2CCN(CCO)CC2)cc2cc(OC)c(OC)cc2c1-c1ccc(Cl)c(Cl)c1 | 82 | > 100 | 53 |  |  | 
